Columns and labels:
Experiment in all cases: LDH cytotoxicity assay after light-triggered release
Type in all cases: cell-based
[1] = system: MDA-MB-231 breast cancer cells; conditions: pulsed laser-induced release (25 mW, 160 fs, 2 min) from NS@DNA1@DTX, FIG. 7A; 24 h
Procedure: (§1) Cellular cytotoxicity resulting from light-triggered release of DTX and LAP from both dsDNA and HSA nanohost molecules was evaluated. Cells were irradiated, according to one or more embodiments, with either a CW laser imparting 1.5 W of power or with a pulsed-laser using a Ti:Sapphire tunable laser operating at 250 kHz with an average power of 25 mW and 160-fs pulsed-laser power for 2 min.
(§2) After the guest molecules were released, each sample was treated at 37° C., 5% CO2 for a treatment period of 24 h to allow time for the released drug guest molecules to interact with the cells. Cell death was evaluated with a lactate dehydrogenase (LDH) cytotoxicity assay. Percent cytotoxicity values were calculated considering 10% cell death in the control experiment, NS @host with no laser treatment.

[2] = system: SKBR3 breast cancer cells; conditions: released LAP; HER2 expressing breast cancer cells vs noncancerous cells
Procedure: as §1, §2
(§3) LAP was released from both an NS @DNA nanohost control and an NS @HSA nanohost in both SKBR3 breast cancer cells and RAW 264.7 macrophage cells.

[3] = system: RAW 264.7 macrophage cells; conditions: macrophages lack the HER2 receptor
Procedure: as §1, §2, §3

Compound	cell death (LDH) [1]	selectivity of cell death [2]	cytotoxicity in macrophages [3]
CC(=O)O[C@@]12CO[C@@H]1C[C@H](O)[C@@]1(C)C(=O)[C@H](O)C3=C(C)[C@@H](OC(=O)[C@H](O)[C@@H](NC(=O)OC(C)(C)C)c4ccccc4)C[C@@](O)([C@@H](OC(=O)c4ccccc4)[C@H]21)C3(C)C [DTX, docetaxel]	No increased cell death		
CS(=O)(=O)CCNCc1ccc(-c2ccc3ncnc(Nc4ccc(OCc5cccc(F)c5)c(Cl)c4)c3c2)o1 [LAP, lapatinib]		selectively induces cell death in HER2 expressing breast cancer cells, without affecting noncancerous cells	does not cause cytotoxicity

Source: patent publication US20200164072A1, “NANOCOMPLEXES FOR REMOTELY-TRIGGERED GUEST MOLECULE RELEASE AND METHODS FOR FABRICATING THE SAME” (William Marsh Rice University, priority 2018, published 2020)
